From patent US8741843B2, “Compositions and methods for inducing angiogenesis” (priority 2006, dated 2014)
“Also recorded” adds a separate entry of the source.

What was measured:
mouse ischemic hind limb [1] = test: Mouse hind-limb ischemia model, laser Doppler blood perfusion; type: in vivo; conditions: 0.1 microgram/mouse i.m., day 21 after surgery, vs PBS
Description: A mouse hind limb model was created by excision of femoral artery of C57B1 mouse hind limb, the non-operated limb served as a control. ADOPep1 (SEQ ID NO:2; red symbols) and 3 (SEQ ID NO:4; green symbols) were injected intra-muscularly one day after surgery at 0.1 (squares) and 1 (circles) micrograms/mouse. Injection of PBS (black diamond) was used as a control. Blood flow was measured using a laser Doppler immediately (T0) or at 7 (T7), 14 (T14) and 21 (T21) days after surgery. The average perfusion of each limb was determined and the perfusion ratio [expressed as Relative Perfusion (ischemic left/control right leg)] was plotted against time.
A mouse hind limb ischemia model was used. Ischemia was created in the C57B1 strain mouse by ligation and excision of the femoral artery on the left hind limb. The right hind limb served as a control. A day after the operation ADOPep1 and 3 were injected intramuscular at a site close to the operation. […] The blood perfusion was measured using a Laser Doppler Blood perfusion analyzer (Perimed, Sweden) one day post operation and 7, 14, 21 days post operation. The average perfusion of each limb was computed and percent perfusion ratio was expressed as the ischemic (left)/control (right) percent perfusion ratio.

mouse ischemic hind limb [2] = test: Histological assessment of angiogenesis in ischemic hind limb (von Willebrand Factor VIII staining); type: in vivo
Description: FIG. 8 is a graph depicting histological assessment of angiogenesis in the ischemic hind limb treated with ADOPep1. Mice were subjected to hind limb ligation and ADOPep administration as described in FIG. 7 and at the noted days (0, 7, 14 and 21 days) post hind limb ligation the mice were sacrificed and legs were embedded in paraffin. Sections were stained with anti von Willebrand factor and the number of Factor VIII positive vessels was determined using the Image Pro Plus software. Shown are the average blood vessel densities (of 10 individual microscopical fields per sample) expressed as number of capillaries per millimeter squared in histological sections of mouse hind limb ischemia treated with ADOPep1.
FIGS. 9a-b are microscopical images of histological sections subjected to von Willebrand Factor immuno-staining of mouse hind limb ischemia 21 days following injection of ADOPep1 (FIG. 9a) or PBS (FIG. 9b). […]
Limbs from mice treated with ADOPep 1, 3 or control mice injected with PBS were sacrificed at 7, 14 and 21 days post operation. […] Vessel densities were expressed as capillaries per millimeter squared. To obtain the average vessel number per cross-section area, a minimum of ten individual fields were sampled, and Image Pro-Plus (MediaCybernetics, Silver spring, MD, USA) was used to measure the counted area. The number of Factor VIII positive vessels was counted.

## HWRRAHLLPRLP [ADOPep1, ADAM15 derived peptide, amino acids 286-297 of the metalloprotease domain]
Mouse ischemic hind limb [1]
  blood perfusion ratio (ischemic left/control right): significant increase in the blood perfusion ratio; also recorded: significant increase in blood perfusion (p<0.05)
Mouse ischemic hind limb [2]; 0.1 μg per mouse, days 7, 14, 21, vs PBS
  blood vessel density (number of blood vessels per area): significant increase (p<0.05) in the number of blood vessels; also recorded: significant increase in the blood vessel density
Mouse ischemic hind limb [2]; 21 days following injection, vs PBS
  von Willebrand Factor staining of small vessels: higher von Willebrand Factor Positive stained small vessels; also recorded: significantly higher von Willebrand Factor staining of small vessels
